Where two headings read alike, the source gives them in different places.
How the values were obtained:
high-order RRE-Rev = assay: EMSA of full-length RRE-Rev ribonucleoprotein formation; type: binding, HIV-1; details: 78 nM RRE, 1.32 μM Rev, 300 mM KCl, 1 mM MgCl2, band of high-order complexes
Excerpt: After the high-affinity interaction between RRE subdomain IIB and the Rev34–50 helix of the first Rev monomer is established, the RRE-Rev ribonucleoprotein is formed by the incorporation of additional Rev units binding to further sites in the RRE (Fig. 3B, right)[9],[10],[13]. Using an electrophoretic mobility shift assay (EMSA) involving full-length RRE and Rev, we also evaluated whether 1,4-terphenyl compounds were capable of interfering with the formation of the ribonucleoprotein. […] The effect was particularly prominent for high-order complexes (containing a greater number of Rev monomers), but the inhibition of low-order complexes by 1d was also detected at concentrations consistent with the IC50 value measured in the IIB-Rev34–50 displacement experiment. Compounds 1b and 3c exerted a weaker effect on the RRE-Rev complex, in agreement with the results obtained in the displacement experiments monitored by fluorescence anisotropy (Fig. 3B and Table 1).
The experiments monitoring RRE-Rev inhibition utilized 78 nM full-length RRE and 1.32 μM full-length Rev dissolved in 10 mM HEPES pH 7.5, 300 mM KCl, 1 mM MgCl2 and 0.5 mM EDTA binding buffer, and increasing concentrations of each compound up to 50 μM[21],[39]. The reactions were incubated at room temperature for 20 minutes and loaded onto 8% polyacrylamide gels with TB running buffer. Gels were run at 4 °C for 1–4 hours at 150 V, and the bands were stained with SYBR gold and quantified with Quantity One 4.1 analysis software. Experiments monitoring binding to the 58-base pair HIV-1 LTRc core segment utilized 20 nM LTRc duplex dissolved in the same binding buffer, and increasing concentrations of each compound. The reactions were similarly incubated and loaded onto 20% polyacrylamide gels with TB running buffer. The gels were run at 4 °C for 3.5 hours at 150 V, and the bands were stained and quantified as described above. The specificity of LTRc association was evaluated by duplicating the experiments in the presence of a 100-fold molar excess of DNAd duplex (28-fold base-pair molar excess). In all cases, we monitored the disappearance of the band corresponding to high-order RRE-Rev complexes or free LTRc, and 50% response RC50 values were determined with Prism by fitting the data to a sigmoidal inhibitory model: I−Imin=ImaxC/1+C/RC50 where I is the intensity of the band corresponding to LTRc or high-order RRE-Rev species at compound concentration C, Imax the best-fit value for maximum intensity, and Imin the minimum intensity obtained at the highest concentration of inhibitor. All EMSA experiments were repeated three times for each compound.

[1] = molecular target: RRE subdomain IIB RNA hairpin IIBh; assay: Fluorescence intensity binding to fluorescein-labelled IIBh hairpin; design: species or system HIV-1; details: for IIB-DNA spec., Kd(IIBh)/Kd(IIBh+LTRd) / IIB-tRNA spec., Kd(IIBh)/Kd(IIBh+tRNA): low ionic strength, 10 mM sodium phosphate pH 6.6, uses Kd1
Excerpt: We next determined whether the terphenyl molecules blocked the interaction between Rev34–50 and subdomain IIB by binding to the RNA and, if so, whether they recognized subdomain IIB in a manner similar to the Rev34–50 α-helix. We first evaluated subdomain IIB association by measuring changes in the fluorescence intensity of a IIBh RNA hairpin construct containing a fluorescein probe attached to unpaired loop IIB residue U23 (Fig. 1D)[21],[22]. […] However, there were significant differences among the compounds.
These experiments measured association to IIBh-23fl or TARh-8fl RNA molecules labelled with fluorescein at extrahelical loop nucleotides U23 and U8, respectively (Fig. 1D), and were carried out under two different ionic conditions in a Victor X5 plate reader, using excitation and emission wavelengths of 485 and 520 nm, respectively. We also attempted to measure association to an alternative IIBh hairpin containing 2-aminopurine instead of adenine at unpaired loop IIB residue A19[21], but all terphenyls fluoresced at the excitation wavelength of this fluorophore. IIBh-23fl or TARh-8fl (at 100 nM concentration) was equilibrated for 5 minutes after each ligand addition in a buffer containing either 10 mM sodium phosphate pH 6.6 and 0.1 mM EDTA or 10 mM HEPES pH 7.5, 200 mM KCl and 2 mM MgCl2. In addition to the TARh specificity control, the RNA and DNA specificity of the IIBh interactions was assessed by duplicating the experiments in the presence of a 10-fold molar excess (1 μM) of either tRNA^Lys or DNA duplex LTRd. The equilibrium dissociation constants Kd were determined by fitting the fluorescence intensity curves with DYNAFIT[40]. We used one-site, two independent-sites and two interacting-sites binding models for all curves, and the best model was automatically selected by model discrimination analysis, except where indicated. The final graphs were plotted with Prism. All fluorescence intensity experiments were performed at least two times for each compound and condition.

HIV-1 = assay: Cellular HIV-1 infection assay (NL4.3-Ren, MT-2 cells); type: cell-based; details: Human immunodeficiency virus 1, MT2, 48 h post-infection
Protocol: The methodology used to perform and analyse these experiments has been reported elsewhere[7],[21],[22]. Briefly, infectious supernatants were obtained from transfection of plasmid pNL4.3-Ren on 293 T cells, MT-2 cells were infected with these supernatants in the presence of the compounds, and anti-HIV activity quantification was performed 48 h post-infection by determining luciferase activity in cell lysates compared to a non-treated control (100%). Cellular viability was evaluated in mock infected cells similarly treated with the same concentrations of compounds using the CellTiterGlo (Promega) assay.

[2] = test system: full length proviral HIV-1 (NL4.3-luc); assay: Transfection of full-length proviral HIV-1 (NL4.3-luc) in MT-2 cells; type: cell-based; details: Human immunodeficiency virus 1, MT2, 48 h, read-out: EC50 transfection HIV-1
HIV-1 LTR promoter = assay: Transfection of pLTR-luc in MT-2 cells; details: Human immunodeficiency virus 1, MT2, 48 h, read-out: EC50 transfection HIV-1 LTR
Protocol: (§1) To further assess the mechanism of antiviral action of the compounds, we checked whether they also interfered with the regulatory sequences of HTLV-1, a closely related retrovirus.
(§2) MT-2 cells were transfected with plasmids containing a luciferase reporter gene whose expression was under the control of the full length proviral HIV-1 (NL4.3-luc), the HIV-1 LTR promoter (pLTR-luc), or the HTLV-1 LTR promoter (pLTR(HTLV)-luc). After transfection, cells were treated with different compound concentrations, and activity quantification was performed 48 h later by determining luciferase activity in cell lysates as described[7],[21],[22].

HTLV-1 LTR promoter = assay: Transfection of pLTR(HTLV)-luc in MT-2 cells; details: Primate T-lymphotropic virus 1, MT2, 48 h, read-out: EC50 transfection HTLV LTR
Protocol: as §1, §2

[3] = molecular target: RRE subdomain IIB-Rev34–50; assay: Fluorescence anisotropy displacement of the IIBh-Rev34–50 interaction; details: read-out: IC50, RRE subdomain IIB-Rev34–50, 60 nM IIBh, 10 nM frevp, 100 mM KCl, 20 mM NaCl, 2 mM MgCl2
Protocol: These experiments were conducted in a Victor X5 (PerkinElmer) plate reader as described before[7],[21], using 10 nM frevp and 60 nM IIBh. […] Each fluorescence anisotropy experiment was repeated at least two times.

[4] = 10 mM sodium phosphate pH 6.6, 0.1 mM EDTA, two-site model, read-out: Kd (IIBh), first-site Kd1
[5] = 10 mM sodium phosphate pH 6.6, 0.1 mM EDTA, two-site model, read-out: Kd (IIBh), second-site Kd2 (in brackets)
[6] = 10-fold molar excess DNA duplex LTRd, 10 mM sodium phosphate pH 6.6, 0.1 mM EDTA, one-site fit, approximate, read-out: Kd (IIBh+LTRd)
[7] = 10-fold molar excess LTRd, 10 mM HEPES pH 7.5, 200 mM KCl, 2 mM MgCl2, read-out: Kd (IIBh+LTRd), one-site or first-site Kd1, Table S2
[8] = 10-fold molar excess tRNALys, 10 mM HEPES pH 7.5, 200 mM KCl, 2 mM MgCl2, one-site fit, approximate, read-out: Kd (IIBh+tRNA), Table S2
[9] = 10-fold molar excess tRNALys, 10 mM sodium phosphate pH 6.6, 0.1 mM EDTA, one-site fit, approximate, read-out: Kd (IIBh+tRNA)
[10] = higher ionic strength, 10 mM HEPES pH 7.5, 200 mM KCl, 2 mM MgCl2
[11] = higher ionic strength, 10 mM HEPES pH 7.5, 200 mM KCl, 2 mM MgCl2, read-out: Kd (IIBh), first-site Kd1, Table S2
[12] = higher ionic strength, 10 mM HEPES pH 7.5, 200 mM KCl, 2 mM MgCl2, read-out: Kd (IIBh), second-site Kd2 (in brackets), Table S2

| Compound | IC50 (high-order RRE-Rev) [µM] | Kd [1, 4] [µM] | Kd [1, 5] [µM] | Kd [1, 6] [µM] | Kd [1, 7] [µM] | Kd ([1]; 10-fold molar excess LTRd, 10 mM HEPES pH 7.5, 200 mM KCl, 2 mM MgCl2, read-out: Kd (IIBh+LTRd), second-site Kd2 (in brackets), Table S2) [µM] | Kd [1, 8] [µM] | Kd [1, 9] [µM] | IIB-DNA spec., Kd(IIBh)/Kd(IIBh+LTRd), Table S2 [1, 10] | IIB-tRNA spec., Kd(IIBh)/Kd(IIBh+tRNA), Table S2 [1, 10] | Kd [1, 11] [µM] | Kd [1, 12] [µM] | IIB-DNA spec., Kd(IIBh)/Kd(IIBh+LTRd) [1] | IIB-tRNA spec., Kd(IIBh)/Kd(IIBh+tRNA) [1] | EC50 (HIV-1) [µM] | EC50 [2] [µM] | EC50 (HIV-1 LTR promoter) [µM] | EC50 (HTLV-1 LTR promoter) [µM] | IC50 [3] [µM] |
| --- | --- | --- | --- | --- | --- | --- | --- | --- | --- | --- | --- | --- | --- | --- | --- | --- | --- | --- | --- |
| Cc1cc(-c2cc(CCN)ccc2CCN)c(C)cc1-c1cc(CCN)ccc1CCN [Compound 1d] | 3 | 0.87 | 3.5 | 2.2 | 3.7 | 54 | 42 | 7.8 | 2.1 | 0.18 | 7.6 | 30 | 0.40 | 0.11 | 57.9 | 6 | 3.2 | 24.9 | 47 |
| Cc1cc(-c2cc(CCN)ccc2CCN)c(C)cc1-c1cccc(CCN)c1 [Compound 3c] | > 50 | 6.5 | 26 | 8.1 | > 50 |  | > 50 | 5.2 |  |  | > 50 |  | 0.80 | 1.3 | 14.1 | 15.4 | 3.32 | 16.4 | > 100 |
| COc1cc(CCN)c(-c2cc(C)c(-c3cc(CCN)c(OC)cc3CCN)cc2C)cc1CCN [Compound 1a] | 6.8 | 0.98 | 5.9 | 2.4 | 15 |  |  | 28 | 0.29 |  | 4.4 | 18 | 0.41 | 0.035 | 10.6 | 12.2 | 7.2 | 16.7 | 14 |
